Structures can show the parent of a compound that is named as a salt.

As to `O=Cc1c2n(c3cc(Br)ccc13)CCNCC2`, the melting point (as a rule, the temperature of the solid-liquid transition) is 186 to 188 °C.
Under `CN1CCc2cc3ccccc3n2CC1` stands 59 to 60 °C.
Under `CCN1CCc2cc3ccccc3n2CC1` stands 44 to 46 °C; under `NCCc1c2n(c3ccccc13)CCNCC2`, 77 to 80 °C; under `COc1ccc(NC(=O)C(=O)c2c3n(c4ccccc24)CCNCC3)cc1`, 177 to 180 °C.
Then `COc1ccc(NC(=O)C(=O)c2c3n(c4ccccc24)CCNCC3)cc1Cl`, with 221 to 223 °C; and `O=C(Nc1ccccc1)C(=O)c1c2n(c3ccccc13)CCNCC2`, with 157 to 160 °C; and `O=Cc1c2n(c3ccccc13)CCNCC2`, with 167 to 168 °C.
With `NC(=O)C(=O)c1c2n(c3ccccc13)CCNCC2`, the melting point lay in the range of 214 to 215 °C.
Under `O=C(c1c2n(c3ccccc13)CCNCC2)C(F)(F)F` stands 131 to 133 °C; under `O=C(Nc1ccc(F)cc1F)C(=O)c1c2n(c3ccccc13)CCNCC2`, 184.5 to 185.5 °C; under `N#Cc1c2n(c3ccccc13)CCNCC2`, 161 to 164 °C.
Under `CCCN1CCc2cc3ccccc3n2CC1` (as salt: hydrochloride) stands 257 to 259 °C.
Molecule `Brc1ccc2cc3n(c2c1)CCNCC3` (as salt: hydrochloride) displayed a melting point of 292 to 295 °C.
Then `Clc1c2n(c3ccccc13)CCNCC2` (as salt: hydrochloride), with more than 250 °C.
Then `CC(C)(C)OC(=O)N1CCc2cc3ccccc3n2CC1` [Example 51, tert-butyl 1,2,4,5-tetrahydro-3H-[1,4]diazepino[1,7-a]indole-3-carboxylate], with 129 to 132 °C.
Then `O=[N+]([O-])/C=C/c1c2n(c3ccccc13)CCNCC2` [Example 52, 11-[(E)-2-nitroethenyl]-2,3,4,5-tetrahydro-1H-[1,4]diazepino[1,7-a]indole], with 225 to 226 °C.

The values above are taken from patent publication US6734301B2, “2,3,4,5-Tetrahydro-1H-[1,4]diazepino[1,7-a]indole compounds” (Pharmacia & Upjohn Company, priority 2000, dated 2004).
